The results in this text go back to article PMC11285368, “Chasing Red Herrings: Palladium Metal Salt Impurities Feigning KRAS Activity in Biochemical Assays” (Journal of Medicinal Chemistry, 2024).

Common to all, as to assay type: biochemical
The target in one test is T1, FKBP51 (Homo sapiens, UniProt Q13451).
T1 sequence (Q13451 1-457): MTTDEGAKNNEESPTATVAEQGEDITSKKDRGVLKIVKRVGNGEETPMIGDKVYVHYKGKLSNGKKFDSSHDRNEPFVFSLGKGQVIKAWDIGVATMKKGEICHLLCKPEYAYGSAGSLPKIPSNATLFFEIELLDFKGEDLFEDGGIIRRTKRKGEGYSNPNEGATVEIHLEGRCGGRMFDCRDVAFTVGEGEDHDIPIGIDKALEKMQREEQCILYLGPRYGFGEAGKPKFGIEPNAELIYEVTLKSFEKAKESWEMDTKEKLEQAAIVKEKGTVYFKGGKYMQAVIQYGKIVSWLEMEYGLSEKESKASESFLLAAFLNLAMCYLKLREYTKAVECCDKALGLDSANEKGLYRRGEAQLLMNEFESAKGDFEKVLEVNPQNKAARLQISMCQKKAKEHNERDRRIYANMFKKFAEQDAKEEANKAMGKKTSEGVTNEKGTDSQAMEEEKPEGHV
In words: FKBP51 AlphaScreen, Target #1. The procedure:
(§1) Metal salt solutions for the metal ion interference set (MIIS) were prepared as 10 mM stock solutions in DMSO (see Table 3). All metal salts used have been purchased at highest industrial grade.

The next test deals with off target (ext.). Briefly: WRN ADP-Glo, Target #4. On the procedure: as §1
The target of a further test is T2, NSD3 (Homo sapiens, UniProt Q9BZ95).
T2 sequence (Q9BZ95 1-1437): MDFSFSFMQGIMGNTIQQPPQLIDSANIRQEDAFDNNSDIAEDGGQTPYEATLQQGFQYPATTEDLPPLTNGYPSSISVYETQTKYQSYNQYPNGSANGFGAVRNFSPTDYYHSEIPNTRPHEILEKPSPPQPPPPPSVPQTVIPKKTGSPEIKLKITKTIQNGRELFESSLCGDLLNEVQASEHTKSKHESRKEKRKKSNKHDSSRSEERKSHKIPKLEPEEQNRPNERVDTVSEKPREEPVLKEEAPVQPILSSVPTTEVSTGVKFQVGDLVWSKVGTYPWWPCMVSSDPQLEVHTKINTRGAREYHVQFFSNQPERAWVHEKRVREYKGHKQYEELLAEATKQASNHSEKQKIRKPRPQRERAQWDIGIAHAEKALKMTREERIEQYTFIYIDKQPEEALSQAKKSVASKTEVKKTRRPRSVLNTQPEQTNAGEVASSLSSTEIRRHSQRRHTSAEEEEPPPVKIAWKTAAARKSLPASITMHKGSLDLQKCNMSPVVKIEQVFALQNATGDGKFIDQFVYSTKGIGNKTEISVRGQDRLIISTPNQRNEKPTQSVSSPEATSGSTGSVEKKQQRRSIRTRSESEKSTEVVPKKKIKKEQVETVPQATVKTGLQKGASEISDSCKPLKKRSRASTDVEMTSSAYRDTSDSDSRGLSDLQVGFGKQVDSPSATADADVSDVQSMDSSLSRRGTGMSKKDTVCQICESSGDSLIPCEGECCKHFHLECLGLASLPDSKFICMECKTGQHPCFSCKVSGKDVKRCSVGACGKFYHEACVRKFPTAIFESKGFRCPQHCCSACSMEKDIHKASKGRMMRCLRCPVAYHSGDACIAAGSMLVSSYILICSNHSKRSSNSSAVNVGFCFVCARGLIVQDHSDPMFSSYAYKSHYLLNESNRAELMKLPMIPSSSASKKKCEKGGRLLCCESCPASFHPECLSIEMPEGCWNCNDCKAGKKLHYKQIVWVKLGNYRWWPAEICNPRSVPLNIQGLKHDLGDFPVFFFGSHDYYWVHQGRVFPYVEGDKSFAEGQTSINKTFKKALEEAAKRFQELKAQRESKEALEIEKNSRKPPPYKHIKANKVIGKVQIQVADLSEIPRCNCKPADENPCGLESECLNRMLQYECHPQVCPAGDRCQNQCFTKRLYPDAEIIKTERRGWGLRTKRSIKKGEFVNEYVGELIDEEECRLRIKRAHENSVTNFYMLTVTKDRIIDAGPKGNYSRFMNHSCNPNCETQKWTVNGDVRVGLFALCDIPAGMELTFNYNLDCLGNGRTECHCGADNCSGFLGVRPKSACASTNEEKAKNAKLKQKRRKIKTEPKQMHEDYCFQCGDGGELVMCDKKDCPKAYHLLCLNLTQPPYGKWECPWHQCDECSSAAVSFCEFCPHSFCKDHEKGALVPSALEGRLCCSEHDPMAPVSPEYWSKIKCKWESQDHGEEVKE
Briefly: NSD3 TR-FRET. To be noted: read-out: Target #1 IC50. On the procedure: as §1

For `[Cl-].[Cl-].[Mg+2]` [MgCl2, Magnesium chloride], the IC50 on FKBP51, in the test on off target (ext.) and at NSD3 was greater than 10 µM each time.
For `[Cl][Pd][Cl]` [PdCl2, Palladium(II) chloride], the IC50 at FKBP51, with off target (ext.) and on NSD3 was greater than 10 µM throughout.
Take `[Cl][Mn][Cl]` [MnCl2, Manganese(II) chloride]: the IC50 on FKBP51, with off target (ext.) and at NSD3 was greater than 10 µM throughout.
Consider `[Cl-].[Cl-].[Co+2]` [CoCl2, Cobalt(II) chloride], for which the IC50 against FKBP51, with off target (ext.) and at NSD3 was greater than 10 µM throughout.
As for `[Cl][Fe]([Cl])[Cl]` [FeCl3, Iron(III) chloride], the IC50 on FKBP51, in the test with off target (ext.) and at NSD3 was greater than 10 µM each time.
As to `[Cl][Au]([Cl])[Cl]` [AuCl3, Gold(III) chloride], the values for the IC50 against FKBP51, with off target (ext.) and at NSD3 were greater than 10 µM, greater than 10 µM and less than 1 µM, respectively.
Consider `[Cl][Cu][Cl]` [CuCl2, Copper(II) chloride], for which the IC50 at FKBP51, in the test with off target (ext.) and on NSD3 was greater than 10 µM in each case.
`CC(=O)[O-].[Ag+]` [Ag (CH 3COO), Silver acetate]: the IC50 on FKBP51 was greater than 10 µM; in the test with off target (ext.), greater than 10 µM; at NSD3 it was 1 to 10 µM.
For the compound `[Cl][Fe][Cl]` [FeCl2, Iron(II) chloride], the IC50 on FKBP51, in the test on off target (ext.) and on NSD3 was greater than 10 µM each time.
`[Cl][Sn][Cl]` [SnCl2, Tin(II) chloride]: the IC50 is 1 to 10 µM on FKBP51, greater than 10 µM in the test with off target (ext.) and less than 1 µM at NSD3.
For the compound `[Cl][Ni][Cl]` [NiCl2, Nickel(II) chloride], the IC50 against FKBP51, with off target (ext.) and at NSD3 was greater than 10 µM each time.
With `[Cl-].[Cl-].[Zn+2]` [ZnCl2, Zinc(II) chloride], the IC50 at FKBP51, in the test on off target (ext.) and on NSD3 was greater than 10 µM each time.
In the case of `O=[N+]([O-])[O-].O=[N+]([O-])[O-].O=[N+]([O-])[O-].[Al+3]` [Al(NO3)3, Aluminum nitrate], the IC50 is less than 1 µM at FKBP51, greater than 10 µM with off target (ext.) and greater than 10 µM on NSD3.
